The results in this text go back to publication PMC8041284, “Tunable Methacrylamides for Covalent Ligand Directed Release Chemistry” (Journal of the American Chemical Society, 2021).

SMILES strings stand for the structures.

Chain of BTK (Q06187 402-655 limits assumed): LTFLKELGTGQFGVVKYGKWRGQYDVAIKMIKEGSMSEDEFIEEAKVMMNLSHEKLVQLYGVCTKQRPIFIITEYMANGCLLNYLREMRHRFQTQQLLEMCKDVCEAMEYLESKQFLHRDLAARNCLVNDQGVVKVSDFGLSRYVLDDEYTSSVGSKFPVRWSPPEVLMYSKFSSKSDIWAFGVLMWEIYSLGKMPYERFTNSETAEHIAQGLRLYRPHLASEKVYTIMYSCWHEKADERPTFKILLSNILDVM

The first assay has as its target BTK (Homo sapiens, UniProt Q06187). As to conditions: 0.75 uM BTK, […] probe 3l, 15 min preincubation, 10 µM, inhibitor, BTK inhibition (%).
Take `CO/N=C(\C(=O)N[C@@H]1C(=O)N2C(C(=O)O)=C(CSC(=O)c3ccco3)CS[C@H]12)c1csc(N)n1` [PCM-0214692]: the “BTK inhibition (%)” value came to 0%. Same read-out and setting: next, `Cc1ccccc1C(=O)Nc1ccc(C(=O)N2CCCC(N(C)C)c3ccccc32)cc1` (stereo not drawn) [PCM-0095419]: -13.6%. The same measure, in the same setting: then `CCC(=O)NS(=O)(=O)c1ccc(-c2c(-c3ccccc3)noc2C)cc1` [PCM-0214825], with 5.5%.

Take `CC(C(=O)O)c1cccc(Oc2ccccc2)c1` (stereo not drawn) [PCM-0086452]: the “BTK inhibition (%)” value is reported as -45.1%.

As for `Cc1cc(NS(=O)(=O)c2ccc(N)cc2)no1` [PCM-0085795], the “BTK inhibition (%)” value is on record as -3.1%. The same measure, in the same setting: then `COc1ccc2[nH]c([S@@+]([O-])Cc3ncc(C)c(OC)c3C)nc2c1` [PCM-0214571], with -13.2%. Same read-out and setting: then `Cc1cc(NS(=O)(=O)c2ccc(N)cc2)no1` [PCM-0215124], with 7%; and `COc1cc(NS(=O)(=O)c2ccc(N)cc2)nc(OC)n1` [PCM-0086362], with -7.8%. Still for that read-out and setting: next, `Nc1ccc(S(=O)(=O)Nc2ncccn2)cc1` [PCM-0214831]: 10.9%.

With `O=C1O[C@H]([C@@H](O)CO)C(O)=C1O` [PCM-0085940], the “BTK inhibition (%)” value was found to be 5.4%.

The assay is the same for the next values; noted with them: 0.75 uM BTK, […] probe 3l, 15 min preincubation; 10 µM; inhibitor.
For `CCCCC(C#N)(Cn1cncn1)c1ccc(Cl)cc1` (stereo not drawn) [PCM-0216598], the “BTK inhibition (%)” value is given as 3.1%. The same measure, in the same setting: next, `O=C/C=C/c1ccccc1` [PCM-0215920]: 3.1%; `CC[N+](C)(CC)CCOC(=O)C(O)(c1ccccc1)c1ccccc1` [PCM-0214829]: -19.5%.

Regarding `CN1[C@@H]2CC(OC(=O)[C@H](CO)c3ccccc3)C[C@H]1[C@@H]1O[C@@H]12` (stereo partly drawn) [PCM-0086586], the “BTK inhibition (%)” value was -3.1%. The same measure, in the same setting: then `O=C(/C=C/c1ccccc1)OC[C@H]1O[C@@H](O[C@@H]2OC=C[C@H]3[C@H](O)[C@@H]4O[C@]4(CO)[C@@H]23)[C@H](O)[C@@H](O)[C@@H]1O` [PCM-0214975], with -1.6%. Still for that read-out and setting: then `C=C[C@@H]1C2=CCOC(=O)C2=CO[C@H]1O[C@@H]1O[C@H](CO)[C@@H](O)[C@H](O)[C@H]1O` [PCM-0214971], with -0.8%; and `COC(=O)c1ccccc1C(=O)OC` [PCM-0216149], with -9.3%.

With `CN[C@H]1C[C@@H](N)[C@H](O)[C@@H](O[C@@H]2O[C@H](CO)[C@H](O)[C@@H]3OC4(O[C@H]23)O[C@H]([C@@H](N)CO)[C@H](O)[C@H](O)[C@H]4O)[C@@H]1O` (stereo partly drawn) [PCM-0095389], the “BTK inhibition (%)” value is given as 0%. On the same count and under the same terms, next, `CCNc1nc(Cl)nc(NC(C)C)n1` [PCM-0215964]: 3.9%; `COc1cc([C@H]2OC[C@@H]3[C@@H]2CO[C@H]3c2cc(OC)c(O[C@@H]3O[C@H](CO)[C@@H](O)[C@H](O)[C@H]3O)c(OC)c2)cc(OC)c1O[C@@H]1O[C@H](CO)[C@@H](O)[C@H](O)[C@H]1O` [PCM-0216398]: -10%.

On to `CN(C)C(=O)Oc1ccc[n+](C)c1` [PCM-0065636], for which the “BTK inhibition (%)” value is recorded as -25.7%. On the same count and under the same terms, then `O=C(NC(=O)c1c(F)cccc1F)Nc1ccc(OC(F)(F)C(F)OC(F)(F)F)c(Cl)c1` (stereo not drawn) [PCM-0216580], with 22.4%.

The same assay, now with this note: 10 µM, inhibitor.
Take `COC1=C[C@@H]2[C@@H]3Cc4ccc(OC)c(O)c4[C@]2(CCN3C)CC1=O` [PCM-0214970]: the “BTK inhibition (%)” value came out at 0%. The same measure, in the same setting: then `COC1=C[C@@H]2[C@@H]3Cc4ccc(OC)c(O)c4[C@]2(CCN3C)CC1=O` [PCM-0090951], with 14.8%.

The same assay, now with this note: 10 µM; inhibitor.
`C[C@H]1CC[C@@H]2N(C1)C[C@H]1[C@@H]3C[C@H]4[C@@H](C[C@H](O)[C@H]5C[C@@H](O)CC[C@@]54C)[C@@H]3CC[C@@H]1[C@]2(C)O` [PCM-0216522]: the “BTK inhibition (%)” value is reported as -15.4%. Still for that read-out and setting: next, `C=C[C@]12CN(C)[C@@H]3[C@H]4CO[C@H](C[C@H]41)[C@]1(C(=O)Nc4ccccc41)[C@@H]32` [PCM-0216528]: -0.8%; `CN1CCC(c2c[nH]c3ccc(O)cc23)CC1` [PCM-0064588]: 16.3%.
